Legend:
[1] = target: FXa (Homo sapiens, UniProt P00742); test: In vitro chromogenic factor Xa inhibitory assay; format: biochemical
[2] = tested on: thrombin; conditions: cited from earlier work; for IC50: thrombin inhibitors

Sequence of FXa (P00742 235-488 limits assumed): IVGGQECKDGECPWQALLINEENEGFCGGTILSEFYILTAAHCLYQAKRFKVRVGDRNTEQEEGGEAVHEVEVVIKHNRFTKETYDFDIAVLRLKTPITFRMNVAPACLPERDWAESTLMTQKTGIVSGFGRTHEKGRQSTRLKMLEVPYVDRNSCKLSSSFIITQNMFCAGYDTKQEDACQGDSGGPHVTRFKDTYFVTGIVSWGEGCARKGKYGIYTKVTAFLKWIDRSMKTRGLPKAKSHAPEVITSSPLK
Sequence of FXa (P00742 41-179 partner limits assumed): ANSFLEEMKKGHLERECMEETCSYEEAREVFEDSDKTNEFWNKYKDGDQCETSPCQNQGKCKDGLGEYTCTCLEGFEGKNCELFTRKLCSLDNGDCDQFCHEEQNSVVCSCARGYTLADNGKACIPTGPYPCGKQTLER

| Molecule | FXa inhibitory activity (in words) [1] | IC50 [1] | IC50 [2] | thrombin inhibitory effects (in words) [2] |
| --- | --- | --- | --- | --- |
| O=c1cc(-c2ccc(O)cc2)oc2cc(O)ccc12 [Compound 1, 7,4′-dihydroxyflavone] | Moderate activity | 67.1 ± 1.75 µM |  |  |
| COc1ccc(-c2coc3cc(O)ccc3c2=O)cc1 [Compound 2, 7-hydroxy-4′-methoxyisoflavone] |  | 17.7 ± 0.28 µM |  |  |
| CC1(C)C=Cc2c(ccc3c2OC[C@@H](c2ccc(O)cc2O)C3)O1 [Compound 3, 3-R-glabridin] | Moderate activity | 35.3 ± 1.03 µM |  |  |
| O=C(/C=C/c1ccc(O)cc1)c1ccc(O)cc1O [Compound 4, isoliquiritigenin] | Moderate activity | 74.4 ± 1.29 µM | 17.9 µM |  |
| O=C1C[C@@H](c2ccc(O[C@@H]3O[C@H](CO)[C@@H](O)[C@H](O)[C@H]3O)cc2)Oc2cc(O)ccc21 [Compound 5, liquiritin] |  | 5.15 ± 0.09 µM |  | negligible |
| COc1c(/C=C/C(=O)c2ccc(O)c(O)c2)ccc(O)c1O [Compound 7, 3,3′,4,4′-tetrahydroxy-2-methoxychalcone] |  | 10.4 ± 0.52 µM |  |  |
| isoliquiritigenin-4-O-β-D-apiosylglucoside [Compound 10] | very weak effects |  | 37.9 µM |  |
| liquiritigenin-4′-O-β-D-apiosyl(1-2)-β-D-glucoside [Compound 8] | very weak effects |  |  |  |

Source: publication PMC8695410 (RSC Advances, 2021)
